17 compounds from patent US11702422B2, “Imidazopyridazines as modulators of IL-17” (Janssen Pharmaceutica NV, priority 2020, dated 2023) can be followed below.

Broadly, the IC50 is the point on the concentration scale where inhibition reaches its midpoint. The low end stands for greater potency, the high end for weaker potency.

Assay [1] concerns the target IL-17A(FLAG-Tagged): IL-17RA(His-Tagged) (Homo sapiens, UniProt Q16552, K93Q). In words: IL-17A(FLAG-Tagged): IL-17RA(His-Tagged) Binding Disruption Eu-HTRF Assay. The settings on record: IL-17A/IL-17RA binding disruption, simple average if tested more than once. The essentials: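 IC50 comes from a one-site competition fit of the HTRF 665/620 nm ratio. Compound dilutions (2-fold, 22 points) were held 1 h rt with FLAG-tagged IL-17A dimer, then His-tagged IL-17RA plus Eu-cryptate anti-FLAG and D2 anti-His antibodies were added for 2 h rt.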
Background: In TR-FRET formats the signal depends on donor and acceptor labels being close together.

Assay [2] relates to IL-17A-induced G-CSF production in human normal keratinocyte (NHK). Description: NHK Assay: IL-17A-induced G-CSF production in human normal keratinocytes. The class given is cell-based. The settings on record: 24 h, adult normal human keratinocytes, IL-17A 5 ng/mL, simple average if tested more than once. The method, boiled down: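 Inhibition of IL-17A-driven G-CSF release is measured in adult keratinocytes stimulated for 24 h at 37° C with 5 ng/mL human IL-17A that had been pre-incubated with compound for 1 h. IC50 comes from HTRF G-CSF levels; cell viability is checked in parallel by luminescent ATP assay.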

Sequence of UniProt Q16552 (Q16552 with tags, fused parts or gaps K93Q): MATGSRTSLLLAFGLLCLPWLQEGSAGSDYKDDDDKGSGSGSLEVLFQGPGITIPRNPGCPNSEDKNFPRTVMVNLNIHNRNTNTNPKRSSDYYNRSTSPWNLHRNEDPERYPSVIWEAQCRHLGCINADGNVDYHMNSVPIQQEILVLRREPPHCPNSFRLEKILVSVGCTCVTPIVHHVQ

With `Cn1nccc1C(=O)N[C@H](c1cn2ncc(C(NC(=O)CC3CC(F)(F)C3)C3CC3)cc2n1)C1CCC(F)(F)CC1` (single isomer, unassigned) [Example 24, N—((S)-(7-((R*)-Cyclopropyl(2-(3,3-difluorocyclobutyl)acetamido)methyl)imidazo[1,2-b]pyridazin-2-yl)(4,4-difluorocyclohexyl)methyl)-1-methyl-1H-pyrazole-5-carboxamide], the IC50 in assay [1] stood at 63 nM; in assay [2] (Homo sapiens, Keratinocyte) it was 84 nM.
For `O=C(CC1CC(F)(F)C1)NC(c1cnn2cc([C@@H](NC(=O)c3cnn(CC4CC4)n3)C3CCC(F)(F)CC3)nc2c1)C1CC1` (single isomer, unassigned) [Example 26, N—((S)-(7-((R*)-Cyclopropyl(2-(3,3-difluorocyclobutyl)acetamido)methyl)imidazo[1,2-b]pyridazin-2-yl)(4,4-difluorocyclohexyl)methyl)-2-(cyclopropylmethyl)-2H-1,2,3-triazole-4-carboxamide] the same measures were 68 nM and 230 nM.
On to `O=C(CCC(F)(F)F)NC(c1cnn2cc([C@@H](NC(=O)c3cnn(CC(F)(F)F)n3)C3CCC(F)(F)CC3)nc2c1)C1CC1` (single isomer, unassigned) [Example 27, N—((S)-(7-((R*)-Cyclopropyl(4,4,4-trifluorobutanamido)methyl)imidazo[1,2-b]pyridazin-2-yl)(4,4-difluorocyclohexyl)methyl)-2-(2,2,2-trifluoroethyl)-2H-1,2,3-triazole-4-carboxamide], for which the IC50 in assay [1] amounted to 100 nM; in assay [2] (Homo sapiens, Keratinocyte), 650 nM.
For the compound `CC(C)(C)[C@@H](O)C(=O)NC(c1cnn2cc([C@@H](NC(=O)c3cnn(CC4CC4)n3)C3CCC(F)(F)CC3)nc2c1)C1CC1` (single isomer, unassigned) [Example 29, N—((S)-(7-((R*)-Cyclopropyl((R)-2-hydroxy-3,3-dimethylbutanamido)methyl)imidazo[1,2-b]pyridazin-2-yl)(4,4-difluorocyclohexyl)methyl)-2-(cyclopropylmethyl)-2H-1,2,3-triazole-4-carboxamide], the IC50 in assay [1] was 46 nM; in assay [2] (Homo sapiens, Keratinocyte) it was 370 nM.
Turning to `Cc1c(C(=O)N[C@H](c2cn3ncc(C(NC(=O)CC4CC(F)(F)C4)C4CC4)cc3n2)C2CCC(F)(F)CC2)cnn1CCC(F)(F)F` (single isomer, unassigned) [Example 51, N—((S)-(7-((S*)-Cyclopropyl(2-(3,3-difluorocyclobutyl)acetamido)methyl)imidazo[1,2-b]pyridazin-2-yl)(4,4-difluorocyclohexyl)methyl)-5-methyl-1-(3,3,3-trifluoropropyl)-1H-pyrazole-4-carboxamide], the IC50 in assay [1] was 12000 nM; in assay [2], roughly 18000 nM.
For the compound `Cc1c(C(=O)N[C@H](c2cn3ncc(C(NC(=O)CC4CC(F)(F)C4)C4CC4)cc3n2)C2CCC(F)(F)CC2)cnn1CCC(F)(F)F` (single isomer, unassigned) [Example 52, N—((S)-(7-((R*)-Cyclopropyl(2-(3,3-difluorocyclobutyl)acetamido)methyl)imidazo[1,2-b]pyridazin-2-yl)(4,4-difluorocyclohexyl)methyl)-5-methyl-1-(3,3,3-trifluoropropyl)-1H-pyrazole-4-carboxamide], the results for the IC50 in assay [1] and in assay [2] were 280 nM and 670 nM, respectively.
On to `Cc1c(C(=O)N[C@H](c2cn3ncc(C(NC(=O)CCC(F)(F)F)C4CC4)cc3n2)C2CCC(F)(F)CC2)cnn1CCC(F)(F)F` (single isomer, unassigned) [Example 53, N—((S)-(7-((S*)-Cyclopropyl(4,4,4-trifluorobutanamido)methyl)imidazo[1,2-b]pyridazin-2-yl)(4,4-difluorocyclohexyl)methyl)-5-methyl-1-(3,3,3-trifluoropropyl)-1H-pyrazole-4-carboxamide], for which the values for the IC50 in assay [1] and in assay [2] were 11000 nM and greater than 20000 nM, respectively.
In the case of `Cc1c(C(=O)N[C@H](c2cn3ncc(C(NC(=O)CCC(F)(F)F)C4CC4)cc3n2)C2CCC(F)(F)CC2)cnn1CCC(F)(F)F` (single isomer, unassigned) [Example 54, N—((S)-(7-((R*)-Cyclopropyl(4,4,4-trifluorobutanamido)methyl)imidazo[1,2-b]pyridazin-2-yl)(4,4-difluorocyclohexyl)methyl)-5-methyl-1-(3,3,3-trifluoropropyl)-1H-pyrazole-4-carboxamide], the half-maximal inhibitory concentration (IC50) in assay [1] was 320 nM; in assay [2], 710 nM.
As for `O=C(CCC(F)(F)F)NC(c1cnn2cc([C@@H](NC(=O)c3cnnn3CCC(F)(F)F)C3CCC(F)(F)CC3)nc2c1)C1CC1` (single isomer, unassigned) [Example 71, N—((S)-(7-((R*)-Cyclopropyl(4,4,4-trifluorobutanamido)methyl)imidazo[1,2-b]pyridazin-2-yl)(4,4-difluorocyclohexyl)methyl)-1-(3,3,3-trifluoropropyl)-1H-1,2,3-triazole-5-carboxamide], the IC50 was determined as 100 nM in assay [1] and 180 nM in assay [2] (Homo sapiens, Keratinocyte).
For the compound `O=C(CC1CC(F)(F)C1)NC(c1cnn2cc([C@@H](NC(=O)c3cnnn3CCC(F)(F)F)C3CCC(F)(F)CC3)nc2c1)C1CC1` (single isomer, unassigned) [Example 72, N—((S)-(7-((S*)-Cyclopropyl(2-(3,3-difluorocyclobutyl)acetamido)methyl)imidazo[1,2-b]pyridazin-2-yl)(4,4-difluorocyclohexyl)methyl)-1-(3,3,3-trifluoropropyl)-1H-1,2,3-triazole-5-carboxamide], the figures for the IC50 in assay [1] and in assay [2] were 78 nM and 86 nM, respectively.
`O=C(CC1CC(F)(F)C1)NC(c1cnn2cc([C@@H](NC(=O)c3cnnn3CCC(F)(F)F)C3CCC(F)(F)CC3)nc2c1)C1CC1` (single isomer, unassigned) [Example 73, N—((S)-(7-((R*)-Cyclopropyl(2-(3,3-difluorocyclobutyl)acetamido)methyl)imidazo[1,2-b]pyridazin-2-yl)(4,4-difluorocyclohexyl)methyl)-1-(3,3,3-trifluoropropyl)-1H-1,2,3-triazole-5-carboxamide]: the IC50 in assay [1] was 1900 nM; in assay [2] it was roughly 15000 nM.
On to `CC(n1nccc1C(=O)N[C@H](c1cn2ncc([C@H](NC(=O)CCC(F)(F)F)C3CC3)cc2n1)C1CCC(F)(F)CC1)C(F)(F)F` (single isomer, unassigned) [Example 115, N—((S)-(7-((R)-Cyclopropyl(4,4,4-trifluorobutanamido)methyl)imidazo[1,2-b]pyridazin-2-yl)(4,4-difluorocyclohexyl)methyl)-1-((R*)-1,1,1-trifluoropropan-2-yl)-1H-pyrazole-5-carboxamide], for which the IC50 in assay [1] amounted to 190 nM; in assay [2] (Homo sapiens, Keratinocyte) it was 140 nM.
As to `CC(n1nccc1C(=O)N[C@H](c1cn2ncc([C@H](NC(=O)CCC(F)(F)F)C3CC3)cc2n1)C1CCC(F)(F)CC1)C(F)(F)F` (single isomer, unassigned) [Example 116, N—((S)-(7-((R)-Cyclopropyl(4,4,4-trifluorobutanamido)methyl)imidazo[1,2-b]pyridazin-2-yl)(4,4-difluorocyclohexyl)methyl)-1-((S*)-1,1,1-trifluoropropan-2-yl)-1H-pyrazole-5-carboxamide], the half-maximal inhibitory concentration (IC50) was determined as 100 nM in assay [1] and 210 nM in assay [2].
For `CC(C)n1nccc1C(=O)N[C@H](c1cn2ncc([C@H](NC(=O)CC(C)C(F)(F)F)C3CC3)cc2n1)C1CCC(F)(F)CC1` (single isomer, unassigned) [Example 121, N—((S)-(7-((R)-Cyclopropyl((R*)-4,4,4-trifluoro-3-methylbutanamido)methyl)imidazo[1,2-b]pyridazin-2-yl)(4,4-difluorocyclohexyl)methyl)-1-isopropyl-1H-pyrazole-5-carboxamide], the IC50 was 88 nM in assay [1] and 110 nM in assay [2] (Homo sapiens, Keratinocyte).
Turning to `CC(C)n1nccc1C(=O)N[C@H](c1cn2ncc([C@H](NC(=O)CC(C)C(F)(F)F)C3CC3)cc2n1)C1CCC(F)(F)CC1` (single isomer, unassigned) [Example 122, N—((S)-(7-((R)-Cyclopropyl((S*)-4,4,4-trifluoro-3-methylbutanamido)methyl)imidazo[1,2-b]pyridazin-2-yl)(4,4-difluorocyclohexyl)methyl)-1-isopropyl-1H-pyrazole-5-carboxamide], the IC50 in assay [1] stood at 110 nM; in assay [2], 220 nM.
Take `Cc1nocc1C(=O)N[C@H](c1cn2ncc([C@H](NC(=O)CC(C)C(F)(F)F)C3CC3)cc2n1)C1CCC(F)(F)CC1` (single isomer, unassigned) [Example 123, N—((S)-(7-((R)-Cyclopropyl((R*)-4,4,4-trifluoro-3-methylbutanamido)methyl)imidazo[1,2-b]pyridazin-2-yl)(4,4-difluorocyclohexyl)methyl)-3-methylisoxazole-4-carboxamide]: the figures for the IC50 in assay [1] and in assay [2] were 55 nM and 130 nM, respectively.
With `Cc1nocc1C(=O)N[C@H](c1cn2ncc([C@H](NC(=O)CC(C)C(F)(F)F)C3CC3)cc2n1)C1CCC(F)(F)CC1` (single isomer, unassigned) [Example 124, N—((S)-(7-((R)-Cyclopropyl((S*)-4,4,4-trifluoro-3-methylbutanamido)methyl)imidazo[1,2-b]pyridazin-2-yl)(4,4-difluorocyclohexyl)methyl)-3-methylisoxazole-4-carboxamide], the IC50 in assay [1] was found to be 110 nM; in assay [2], 690 nM.
